ChEMBL document CHEMBL1201862, “PubChem BioAssay data set” (2004)
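Protocol summary: plate cells (96-well), add compound at 5 concentrations, incubate 48 h, interpolate endpoints linearly. GI50: concentration for 50% inhibition of growth.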 Activity calls are given as the source filed them. Cut-off read from the data, not from the text of the source: active = GI50 up to about 1.1 µM and inactive = higher.

Legend:
Assay in all cases: inhibition of tumour cell growth, NCI panel, 48 h
786-0 = system: 786-0
A498 = system: A498
A549 = system: A549
ACHN = system: ACHN
BT-549 = system: BT-549
CAKI-1 = system: CAKI-1
CCRF-CEM = system: CCRF-CEM
COLO 205 = system: COLO 205
DU-145 = system: DU-145
EKVX = system: EKVX
HCC 2998 = system: HCC 2998
HCT-116 = system: HCT-116
HCT-15 = system: HCT-15
HL-60 = system: HL-60
HOP-62 = system: HOP-62
HT-29 = system: HT-29
Hs-578T = system: Hs-578T
IGROV-1 = system: IGROV-1
K562 = system: K562
KM12 = system: KM12
LOX IMVI = system: LOX IMVI
M14 = system: M14
MCF7 = system: MCF7
MDA-MB-231 = system: MDA-MB-231
MDA-MB-435 = system: MDA-MB-435
MDA-N = system: MDA-N
MOLT-4 = system: MOLT-4
Malme-3M = system: Malme-3M
NCI-H226 = system: NCI-H226
NCI-H23 = system: NCI-H23
NCI-H460 = system: NCI-H460
NCI-H522 = system: NCI-H522
NCI/ADR-RES = system: NCI/ADR-RES
OVCAR-3 = system: OVCAR-3
OVCAR-4 = system: OVCAR-4
OVCAR-5 = system: OVCAR-5
OVCAR-8 = system: OVCAR-8
PC-3 = system: PC-3
RPMI-8226 = system: RPMI-8226
SF-268 = system: SF-268
SF-295 = system: SF-295
SF-539 = system: SF-539
SK-MEL-28 = system: SK-MEL-28
SK-MEL-2 = system: SK-MEL-2
SK-MEL-5 = system: SK-MEL-5
SK-OV-3 = system: SK-OV-3
SN12C = system: SN12C
SNB-19 = system: SNB-19
SR = system: SR
SW-620 = system: SW-620
T47D = system: T47D
TK-10 = system: TK-10
U-251 = system: U-251
UACC-257 = system: UACC-257
UACC-62 = system: UACC-62
UO-31 = system: UO-31
HOP-92 = system: HOP-92
RXF 393 = system: RXF 393
SNB-75 = system: SNB-75

`O=S(=O)(O)c1ccc(NN(c2c(O)ccc3ccccc23)S(=O)(=O)O)cc1` was tested, and the GI50 (786-0) was > 100 µM (inactive), the GI50 (A498) was > 100 µM (inactive) and the GI50 (A549) was > 100 µM (inactive). The GI50 (ACHN) was > 100 µM (inactive), the GI50 (BT-549) was > 100 µM (inactive) and the GI50 (CAKI-1) was > 100 µM (inactive). The GI50 (CCRF-CEM) was > 100 µM (inactive), the GI50 (COLO 205) was > 100 µM (inactive) and the GI50 (DU-145) was > 100 µM (inactive). The GI50 (EKVX) was > 100 µM (inactive), the GI50 (HCC 2998) was > 100 µM (inactive) and the GI50 (HCT-116) was > 100 µM (inactive). For the same compound, the GI50 (HCT-15) was greater than 100 µM, the GI50 (HL-60) was > 100 µM (inactive) and the GI50 (HOP-62) was > 100 µM (inactive). The GI50 (HT-29) was > 100 µM (inactive), the GI50 (Hs-578T) was > 100 µM (inactive) and the GI50 (IGROV-1) was > 100 µM (inactive). The GI50 (K562) was > 100 µM (inactive), the GI50 (KM12) was > 100 µM (inactive) and the GI50 (LOX IMVI) was > 100 µM (inactive). For the same compound, the GI50 (M14) was > 100 µM (inactive), the GI50 (MCF7) was > 100 µM (inactive) and the GI50 (MDA-MB-231) was > 100 µM (inactive). The GI50 (MDA-MB-435) was > 100 µM (inactive), the GI50 (MDA-N) was > 100 µM (inactive) and the GI50 (MOLT-4) was > 100 µM (inactive). For the same compound, the GI50 (Malme-3M) was > 100 µM (inactive), the GI50 (NCI-H226) was > 100 µM (inactive) and the GI50 (NCI-H23) was > 100 µM (inactive). For the same compound, the GI50 (NCI-H460) was > 100 µM (inactive), the GI50 (NCI-H522) was > 100 µM (inactive) and the GI50 (NCI/ADR-RES) was > 100 µM (inactive). The GI50 (OVCAR-3) was > 100 µM (inactive), the GI50 (OVCAR-4) was > 100 µM (inactive) and the GI50 (OVCAR-5) was > 100 µM (inactive). The GI50 (OVCAR-8) was > 100 µM (inactive), the GI50 (PC-3) was > 100 µM (inactive) and the GI50 (RPMI-8226) was > 100 µM (inactive). For the same compound, the GI50 (SF-268) was > 100 µM (inactive), the GI50 (SF-295) was > 100 µM (inactive) and the GI50 (SF-539) was > 100 µM (inactive). For the same compound, the GI50 (SK-MEL-28) was > 100 µM (inactive), the GI50 (SK-MEL-2) was > 100 µM (inactive) and the GI50 (SK-MEL-5) was > 100 µM (inactive). For the same compound, the GI50 (SK-OV-3) was > 100 µM (inactive), the GI50 (SN12C) was > 100 µM (inactive) and the GI50 (SNB-19) was > 100 µM (inactive). The GI50 (SR) was > 100 µM (inactive), the GI50 (SW-620) was > 100 µM (inactive) and the GI50 (T47D) was > 100 µM (inactive). The GI50 (TK-10) was > 100 µM (inactive), the GI50 (U-251) was > 100 µM (inactive) and the GI50 (UACC-257) was > 100 µM (inactive). For the same compound, the GI50 (UACC-62) was > 100 µM (inactive) and the GI50 (UO-31) was > 100 µM (inactive).

With `C=Cc1nc(C#N)c(N)o1` the GI50 (786-0) was > 100 µM (inactive), the GI50 (A498) was > 100 µM (inactive) and the GI50 (A549) was > 100 µM (inactive). For the same compound, the GI50 (BT-549) was > 100 µM (inactive), the GI50 (CAKI-1) was > 100 µM (inactive) and the GI50 (CCRF-CEM) was > 100 µM (inactive). The GI50 (COLO 205) was > 100 µM (inactive), the GI50 (DU-145) was > 100 µM (inactive) and the GI50 (EKVX) was > 100 µM (inactive). The GI50 (HCC 2998) was > 100 µM (inactive), the GI50 (HCT-116) was > 100 µM (inactive) and the GI50 (HCT-15) was greater than 100 µM. For the same compound, the GI50 (HL-60) was > 100 µM (inactive), the GI50 (HOP-62) was > 100 µM (inactive) and the GI50 (HOP-92) was > 100 µM (inactive). The GI50 (HT-29) was > 100 µM (inactive), the GI50 (Hs-578T) was > 100 µM (inactive) and the GI50 (IGROV-1) was > 100 µM (inactive). The GI50 (K562) was > 100 µM (inactive), the GI50 (KM12) was > 100 µM (inactive) and the GI50 (LOX IMVI) was > 100 µM (inactive). The GI50 (M14) was > 100 µM (inactive), the GI50 (MCF7) was > 100 µM (inactive) and the GI50 (MDA-MB-231) was > 100 µM (inactive). For the same compound, the GI50 (MDA-MB-435) was > 100 µM (inactive), the GI50 (MDA-N) was > 100 µM (inactive) and the GI50 (MOLT-4) was > 100 µM (inactive). For the same compound, the GI50 (Malme-3M) was > 100 µM (inactive), the GI50 (NCI-H226) was > 100 µM (inactive) and the GI50 (NCI-H23) was > 100 µM (inactive). The GI50 (NCI-H460) was > 100 µM (inactive), the GI50 (NCI-H522) was > 100 µM (inactive) and the GI50 (NCI/ADR-RES) was > 100 µM (inactive). The GI50 (OVCAR-3) was > 100 µM (inactive), the GI50 (OVCAR-4) was > 100 µM (inactive) and the GI50 (OVCAR-5) was > 100 µM (inactive). For the same compound, the GI50 (OVCAR-8) was > 100 µM (inactive), the GI50 (PC-3) was > 100 µM (inactive) and the GI50 (RPMI-8226) was > 100 µM (inactive). For the same compound, the GI50 (RXF 393) was > 100 µM (inactive), the GI50 (SF-268) was > 100 µM (inactive) and the GI50 (SF-295) was > 100 µM (inactive). For the same compound, the GI50 (SF-539) was > 100 µM (inactive), the GI50 (SK-MEL-28) was > 100 µM (inactive) and the GI50 (SK-MEL-2) was > 100 µM (inactive). The GI50 (SK-MEL-5) was > 100 µM (inactive), the GI50 (SK-OV-3) was > 100 µM (inactive) and the GI50 (SN12C) was > 100 µM (inactive). The GI50 (SNB-19) was > 100 µM (inactive), the GI50 (SNB-75) was > 100 µM (inactive) and the GI50 (SW-620) was > 100 µM (inactive). The GI50 (T47D) was > 100 µM (inactive), the GI50 (TK-10) was > 100 µM (inactive) and the GI50 (U-251) was > 100 µM (inactive). For the same compound, the GI50 (UACC-257) was > 100 µM (inactive) and the GI50 (UO-31) was > 100 µM (inactive).
